This assay deals with purified recombinantly expressed human SSAO (Homo sapiens (Human), UniProt Q16853). In words: SSAO enzyme inhibition assay (HRP-coupled hydrogen peroxide detection or 14C-benzaldehyde detection, benzylamine substrate). As to conditions: SSAO inhibitory activity, human recombinant SSAO, RT. The format is biochemical. As for the experimental part:
All primary assays were performed at RT. with purified recombinantly expressed human SSAO. Enzyme was prepared essentially as described in Öhman et al. (Protein Expression and Purification 46 (2006) 321-331). In addition, secondary- and selectivity assays were performed using SSAO prepared from various tissues or purified rat recombinant SSAO. The enzyme activity was assayed with benzylamine as substrate by measuring either benzaldehyde production, using ^14C-labeled substrate, or by utilizing the production of hydrogen peroxide in a horseradish peroxidase (HRP) coupled reaction. Briefly, test compounds were dissolved in dimethyl sulfoxide (DMSO) to a concentration of 10 mM. Dose-response measurements were assayed by either creating 1:10 serial dilutions in DMSO to produce a 7 point curve or by making 1:3 serial dilutions in DMSO to produce 11 point curves.
In a horseradish peroxidase (HRP) coupled reaction, hydrogen peroxide oxidation of 10-acetyl-3,7-dihydroxyphenoxazine produced resorufin, which is a highly fluorescent compound (Zhout and Panchuk-Voloshina. Analytical Biochemistry 253 (1997) 169-174; Amplex® Red Hydrogen Peroxide/peroxidase Assay kit, Invitrogen A22188). Enzyme and compounds in 50 mM sodium phosphate, pH 7.4 were set to pre-incubate in flat-bottomed microtiter plates for approximately 15 min before initiating the reaction by addition of a mixture of HRP, benzylamine and Amplex reagent. Benzylamine concentration was fixed at a concentration corresponding to the Michaelis constant, determined using standard procedures. Fluorescence intensity was then measured at several time points during 1-2 h, exciting at 544 nm and reading the emission at 590 nm. For the human SSAO assay final concentrations of the reagents in the assay wells were: SSAO enzyme 1 ug/ml, benzylamine 100 uM, Amplex reagent 20 uM, HRP 0.1 U/mL and varying concentrations of test compound. The inhibition was measured as % decrease of the signal compared to a control without inhibitor (only diluted DMSO). The background signal from a sample containing no SSAO enzyme was subtracted from all data points. Data was fitted to a four parameter logistic model and IC50 values were calculated using the GraphPad Prism 4 or XLfit 4 programs.
SSAO activity was assayed using 14C-labeled benzylamine and analysed by measuring radioactive benzaldehyde. In a white 96-well optiplate (Packard), 20 uL of diluted test compound was pre-incubated at room temperature with 20 uL SSAO enzyme for approximately 15 min with continuous agitation. All dilutions were made with PBS. The reaction was initiated by adding 20 uL of the benzylamine substrate solution containing [7-14C] Benzylamine hydrochloride (CFA589, GE Healthcare). The plate was incubated for 1 h as above after which the reaction was stopped by acidification (10 uL 1M aq HCl). Then 90 uL Micro Scint-E solution (Perkin-Elmer) was added to each well and the plate was continuously mixed for 15 min. Phase separation occurred instantly and activity was read in a Topcount scintillation counter (Perkin-Elmer). In the final reaction well, the human recombinant SSAO concentration was 10 ug/ml. In order to optimize sensitivity, the substrate concentration was decreased as compared to the HRP coupled assay in order to get a higher fraction of radioactive product. In the human SSAO assay, benzylamine concentration was 40 uM (0.2 uCi/mL). Data was analysed as above.

Structures can show the parent of a compound that is named as a salt.

Sequence of purified recombinantly expressed human SSAO (Q16853 29-763): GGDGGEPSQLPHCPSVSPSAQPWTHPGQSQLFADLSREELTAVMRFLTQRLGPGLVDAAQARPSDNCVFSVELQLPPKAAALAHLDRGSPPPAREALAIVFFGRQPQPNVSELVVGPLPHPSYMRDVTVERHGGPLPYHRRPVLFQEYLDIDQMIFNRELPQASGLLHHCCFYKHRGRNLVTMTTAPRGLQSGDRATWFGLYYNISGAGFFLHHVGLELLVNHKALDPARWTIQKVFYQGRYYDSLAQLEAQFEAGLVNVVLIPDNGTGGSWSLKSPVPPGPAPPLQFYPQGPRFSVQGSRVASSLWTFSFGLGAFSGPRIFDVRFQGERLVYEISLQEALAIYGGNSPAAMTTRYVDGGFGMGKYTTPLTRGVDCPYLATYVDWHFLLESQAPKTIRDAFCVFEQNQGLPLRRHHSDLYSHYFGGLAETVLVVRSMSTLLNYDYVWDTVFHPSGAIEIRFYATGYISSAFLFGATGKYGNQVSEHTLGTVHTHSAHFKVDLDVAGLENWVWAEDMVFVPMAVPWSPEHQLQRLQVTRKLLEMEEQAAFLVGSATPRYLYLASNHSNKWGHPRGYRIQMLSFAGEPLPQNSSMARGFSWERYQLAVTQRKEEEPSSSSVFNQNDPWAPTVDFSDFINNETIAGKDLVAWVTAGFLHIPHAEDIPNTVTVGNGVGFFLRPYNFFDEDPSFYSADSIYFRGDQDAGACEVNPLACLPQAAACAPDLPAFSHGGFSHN

Usually IC50 stands for the concentration needed to halve the response being measured. Regarding `Clc1ccc(-n2c(-c3ccc(N4CCOCC4)nn3)nc3ccncc32)cc1` [Example 4, 4-{6-[3-(4-Chlorophenyl)-3H-imidazo[4,5-c]pyridin-2-yl]pyridazin-3-yl}morpholine], the IC50 is less than 50 nM.

With `NC1CCN(c2ccc(-c3nc4ccncc4n3-c3ccc(Cl)cc3)cn2)CC1` [Example 8, 1-{5-[3-(4-Chlorophenyl)-3H-imidazo[4,5-c]pyridin-2-yl]pyridin-2-yl}piperidin-4-amine], the IC50 was less than 50 nM.

As to `Fc1ccc(-n2c(-c3cnc(NCC4CC4)nc3)nc3ccncc32)cc1` [Example 9, N-(Cyclopropylmethyl)-5-[3-(4-fluorophenyl)-3H-imidazo[4,5-c]pyridin-2-yl]pyrimidin-2-amine], the IC50 was less than 50 nM.

As to `Cc1cc(N2CCOCC2)ncc1-c1nc2ccncc2n1-c1ccc(Cl)cc1F` [Example 22, 4-{5-[3-(4-Chloro-2-fluorophenyl)-3H-imidazo[4,5-c]pyridin-2-yl]-4-methylpyridin-2-yl}morpholine], the IC50 is less than 50 nM.

Consider `Fc1ccc(-n2c(-c3cnc(N4CCCOCC4)nc3)nc3ccncc32)cc1` [Example 25, 4-{5-[3-(4-Fluorophenyl)-3H-imidazo[4,5-c]pyridin-2-yl]pyrimidin-2-yl}-1,4-oxazepane], for which the IC50 was less than 50 nM.

Regarding `Cc1nc(N2CCOCC2)ncc1-c1nc2ccncc2n1-c1ccc(Cl)cc1F` [Example 27, 4-{5-[3-(4-Chloro-2-fluorophenyl)-3H-imidazo[4,5-c]pyridin-2-yl]-4-methylpyrimidin-2-yl}morpholine], the IC50 is less than 50 nM.

Regarding `Cn1ccc(-c2nc3ccncc3n2-c2ccc(Cl)cc2)cc1=O` [Example 32, 4-[3-(4-Chlorophenyl)-3H-imidazo[4,5-c]pyridin-2-yl]-1-methyl-1,2-dihydropyridin-2-one], the IC50 was less than 50 nM.

For the compound `COCCCNc1ncc(-c2nc3ccncc3n2-c2ccc(C)cc2)cn1` [Example 37, N-(3-Methoxypropyl)-5-[3-(4-methylphenyl)-3H-imidazo[4,5-c]pyridin-2-yl]pyrimidin-2-amine], the IC50 is less than 50 nM.

On to `Cc1ccc(-n2c(-c3cnc(NCCOC(C)C)nc3)nc3ccncc32)cc1` [Example 39, 5-[3-(4-Methylphenyl)-3H-imidazo[4,5-c]pyridin-2-yl]-N-[2-(propan-2-yloxy)ethyl]pyrimidin-2-amine], for which the IC50 is less than 50 nM.

`Fc1ccc(-n2c(-c3ccc(N4CCOCC4)nc3)nc3ccncc32)c(F)c1` [Example 41, 4-{5-[3-(2,4-Difluorophenyl)-3H-imidazo[4,5-c]pyridin-2-yl]pyridin-2-yl}morpholine]: the IC50 is less than 50 nM.

Turning to `CCOCCNc1ncc(-c2nc3ccncc3n2-c2ccc(C)cc2)cn1` [Example 43, N-(2-Ethoxyethyl)-5-[3-(4-methylphenyl)-3H-imidazo[4,5-c]pyridin-2-yl]pyrimidin-2-amine], the IC50 was less than 50 nM.

`Clc1ccc(-n2c(-c3ccc(N4CCOCC4)nc3)nc3ccncc32)cc1` [Example 47, 4-{5-[3-(4-Chlorophenyl)-3H-imidazo[4,5-c]pyridin-2-yl]pyridin-2-yl}morpholine]: the IC50 is less than 50 nM.

Take `Clc1ccc(-n2c(-c3ccc(Cn4ccnc4)cc3)nc3ccncc32)cc1` [Example 48, 1-({4-[3-(4-Chlorophenyl)-3H-imidazo[4,5-c]pyridin-2-yl]phenyl}methyl)-1H-imidazole]: the IC50 was less than 50 nM.

Consider `Clc1ccc(-n2c(-c3ccc(CN4CCOCC4)cc3)nc3ccncc32)cc1` [Example 49, 4-({4-[3-(4-Chlorophenyl)-3H-imidazo[4,5-c]pyridin-2-yl]phenyl}methyl)morpholine], for which the IC50 is less than 50 nM.

For the compound `Clc1ccc(-n2c(-c3cnc(N4CCOCC4)nc3)nc3ccncc32)cc1` [Example 51, 4-{5-[3-(4-Chlorophenyl)-3H-imidazo[4,5-c]pyridin-2-yl]pyrimidin-2-yl}morpholine], the concentration for half-maximal inhibition (IC50) was less than 50 nM.

For the compound `Cc1cc(F)ccc1-n1c(-c2cnc(N3CCOCC3)nc2)nc2ccncc21` [Example 55, 4-{5-[3-(4-Fluoro-2-methylphenyl)-3H-imidazo[4,5-c]pyridin-2-yl]pyrimidin-2-yl}morpholine], the IC50 is less than 50 nM.

In the case of `Fc1ccc(-n2c(-c3ccc(N4CCOCC4)nc3)nc3ccncc32)c(Cl)c1` [Example 61, 4-{5-[3-(2-Chloro-4-fluorophenyl)-3H-imidazo[4,5-c]pyridin-2-yl]pyridin-2-yl}morpholine], the IC50 is less than 50 nM.

Regarding `Oc1ccc(-n2c(-c3ccc(N4CCOCC4)nc3)nc3ccncc32)cc1` [Example 65, 4-{2-[6-(Morpholin-4-yl)pyridin-3-yl]-3H-imidazo[4,5-c]pyridin-3-yl}phenol], the IC50 was less than 50 nM.

`Cc1ccc(-n2c(-c3ccc(N4CCOCC4)nc3)nc3ccncc32)c(F)c1` [Example 67, 4-{5-[3-(2-Fluoro-4-methylphenyl)-3H-imidazo[4,5-c]pyridin-2-yl]pyridin-2-yl}morpholine]: the IC50 was less than 50 nM.

For `Fc1ccccc1-n1c(-c2ccc(N3CCOCC3)nc2)nc2ccncc21` [Example 68, 4-{5-[3-(2-Fluorophenyl)-3H-imidazo[4,5-c]pyridin-2-yl]pyridin-2-yl}morpholine], the IC50 is less than 50 nM.

Turning to `Cc1ccc(-n2c(-c3cnc(N4CCOCC4)nc3)nc3ccncc32)nc1` [Example 79, 4-{5-[3-(5-Methylpyridin-2-yl)-3H-imidazo[4,5-c]pyridin-2-yl]pyrimidin-2-yl}morpholine], the 50% inhibitory concentration (IC50) was less than 50 nM.

For the compound `Fc1cc(Cl)ccc1-n1c(-c2cnc(N3CCCC3)nc2)nc2ccncc21` [Example 83, 5-[3-(4-Chloro-2-fluorophenyl)-3H-imidazo[4,5-c]pyridin-2-yl]-2-(pyrrolidin-1-yl)pyrimidine], the IC50 was less than 50 nM.

With `CN(C)c1ncc(-c2nc3ccncc3n2-c2ccc(Cl)cc2F)cn1` [Example 84, 5-[3-(4-Chloro-2-fluorophenyl)-3H-imidazo[4,5-c]pyridin-2-yl]-N,N-dimethylpyrimidin-2-amine], the IC50 was less than 50 nM.

`CC(=O)N1CCCN(c2ccc(-c3nc4ccncc4n3-c3ccc(F)cc3)cn2)CC1` [Example 87, 1-(4-{5-[3-(4-Fluorophenyl)-3H-imidazo[4,5-c]pyridin-2-yl]pyridin-2-yl}-1,4-diazepan-1-yl)ethan-1-one; bis(trifluoroacetic acid)]: the IC50 is less than 50 nM.

For the compound `CS(=O)(=O)NC1CCN(c2ccc(-c3nc4ccncc4n3-c3ccc(Cl)cc3)cn2)CC1` [Example 88, N-(1-{5-[3-(4-Chlorophenyl)-3H-imidazo[4,5-c]pyridin-2-yl]pyridin-2-yl}piperidin-4-yl)methanesulfonamide], the IC50 was less than 50 nM.

As to `NC(=O)N1CCN(c2ccc(-c3nc4ccncc4n3-c3ccc(Cl)cc3)cn2)CC1` [Example 90, 4-{5-[3-(4-Chlorophenyl)-3H-imidazo[4,5-c]pyridin-2-yl]pyridin-2-yl}piperazine-1-carboxamide dihydrochloride], the IC50 is less than 50 nM.

As for `O=c1cc(N2CCOCC2)[nH]cc1-c1nc2ccncc2n1-c1ccc(F)cc1` [Example 99, 5-[3-(4-Fluorophenyl)-3H-imidazo[4,5-c]pyridin-2-yl]-2-(morpholin-4-yl)-1,4-dihydropyridin-4-one], the IC50 is less than 50 nM.

With `Cc1cc(-n2cccn2)ncc1-c1nc2ccncc2n1-c1ccc(F)cc1` [Example 102, 5-[3-(4-Fluorophenyl)-3H-imidazo[4,5-c]pyridin-2-yl]-4-methyl-2-(1H-pyrazol-1-yl)pyridine], the IC50 was 50 to 200 nM.

In the case of `Cc1ccc(-n2c(-c3ccc(N4C[C@@H](C)O[C@@H](C)C4)nc3)nc3ccncc32)nc1` [Example 104, (2R,6S)-2,6-Dimethyl-4-{5-[3-(5-methylpyridin-2-yl)-3H-imidazo[4,5-c]pyridin-2-yl]pyridin-2-yl}morpholine], the IC50 is less than 50 nM.

As for `Cc1ccc(-n2c(-c3cnc(N4CCOCC4)cc3C)nc3ccncc32)cn1` [Example 107, 4-{4-Methyl-5-[3-(6-methylpyridin-3-yl)-3H-imidazo[4,5-c]pyridin-2-yl]pyridin-2-yl}morpholine], the IC50 is less than 50 nM.

The record behind these values is patent US9951068B2 (Proximagen Limited, priority 2013, dated 2018).
